Measurements from patent publication US20080161232A1, “C5a Receptor Antagonist” (JERINI AG, priority 2005, published 2008).
Starred links: 1 amine or outer side, 2 acyl side, 3 side chain; linkers in the order of their positions; H or OH if unused. Positions of bridges follow the written chain, without caps; N, C: chain ends. Non-standard residues stand in square brackets, D forms with d. Residues, ends and D or L forms follow the SMILES beside them. *: point of attachment. Propanoyl(3,3-Ph2) = O=C(CC(c1ccccc1)c1ccccc1)*; Phe(4-tBu) = CC(C)(C)c1ccc(C[C@H](N)C(=O)O)cc1; Dip = N[C@H](C(=O)O)C(c1ccccc1)c1ccccc1; NMe2Phe = CN(C)[C@@H](Cc1ccccc1)C(=O)*; 1Nal = N[C@@H](Cc1cccc2ccccc12)C(=O)O; 2Nal = N[C@@H](Cc1ccc2ccccc2c1)C(=O)O; Bta = N[C@@H](Cc1csc2ccccc12)C(=O)O; NMeF = CN[C@@H](Cc1ccccc1)C(=O)O; 2Thi = N[C@@H](Cc1cccs1)C(=O)O; Cha = N[C@@H](CC1CCCCC1)C(=O)O; dCha = N[C@H](CC1CCCCC1)C(=O)O; NHPhenethyl = c1ccc(CCN*)cc1; X23 = O=C(CC(O)c1ccccc1)*; Nle = CCCC[C@H](N)C(=O)O; Orn = NCCC[C@H](N)C(=O)O; Aze = O=C(O)[C@@H]1CCN1; CO = O=C([*:1])[*:2]; NHBu = CCCCN*

The compounds below were run against T1, human C5aR(CD88) (Homo sapiens, UniProt P21730) (assay: Determination of the IC50 value in an enzyme release assay (functional assay, antagonistic activity)). Details: antagonistic activity; IC50 group in enzyme release assay, RBL cells expressing human C5aR(CD88); read-out: activity (group).
T1 construct: expressed in transfected cells; host or cells: rat basophilic leukemia cells (RBL)
T1 sequence (P21730 1-350): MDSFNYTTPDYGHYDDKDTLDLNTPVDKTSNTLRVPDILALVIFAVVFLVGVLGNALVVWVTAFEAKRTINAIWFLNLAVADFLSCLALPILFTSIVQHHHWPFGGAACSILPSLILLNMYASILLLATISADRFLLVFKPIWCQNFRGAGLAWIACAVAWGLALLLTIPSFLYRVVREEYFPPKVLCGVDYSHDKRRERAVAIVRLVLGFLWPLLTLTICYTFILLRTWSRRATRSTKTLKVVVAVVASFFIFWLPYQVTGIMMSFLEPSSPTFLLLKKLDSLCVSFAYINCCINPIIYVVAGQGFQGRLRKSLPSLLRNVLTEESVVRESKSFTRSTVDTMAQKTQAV
Assay type: cell-based

SMILES | IC50
CC(=O)N[C@@H](Cc1ccccc1)C(=O)N[C@H]1CCCNC(=O)[C@H](C)NC(=O)[C@H](Cc2c[nH]c3ccccc23)NC(=O)[C@@H](CC2CCCCC2)NC(=O)[C@@H]2CCCN2C1=O [Compound 39] (Ac-F[Orn]P[dCha]WA; lactam 2-C) | > 2000 nM
CC(=O)N[C@@H](Cc1ccccc1)C(=O)N[C@@H](CCCN)C(=O)N1CCC[C@H]1C(=O)N[C@H](CC1CCCCC1)C(=O)N[C@@H](Cc1c[nH]c2ccccc12)C(=O)N[C@@H](Cc1ccc(C(C)(C)C)cc1)C(N)=O [Compound 68, Ac-Phe-Orn-Pro-cha-Trp-Eap-NH2] (Ac-F[Orn]P[dCha]W[Phe(4-tBu)]-NH2) | 200 to 2000 nM
NCCC[C@H](NC(=O)CC(c1ccccc1)c1ccccc1)C(=O)N1CCC[C@H]1C(=O)N[C@H](CC1CCCCC1)C(=O)N[C@@H](Cc1c[nH]c2ccccc12)C(=O)N[C@@H](Cc1ccccc1)C(N)=O [Compound 70, Ph2-CH—CH2—CO-Orn-Pro-cha-Trp-Phe-NH2] ({Propanoyl(3,3-Ph2)}-[Orn]P[dCha]WF-NH2) | 200 to 2000 nM
CC(=O)N[C@@H](Cc1ccccc1)C(=O)N[C@@H](CCCN)C(=O)N1CCC[C@H]1C(=O)N[C@H](CC1CCCCC1)C(=O)N[C@@H](Cc1c[nH]c2ccccc12)C(=O)NCCc1ccccc1 [Compound 72, Ac-Phe-Orn-Pro-cha-Trp-NH—CH2—CH2-Ph] (Ac-F[Orn]P[dCha]W-NHPhenethyl) | 200 to 2000 nM
CC(=O)N[C@@H](Cc1ccccc1)C(=O)N[C@@H](CCCN)C(=O)N1CC[C@H]1C(=O)N[C@H](CC1CCCCC1)C(=O)N[C@@H](Cc1csc2ccccc12)C(=O)NCCc1ccccc1 [Compound 73, Ac-Phe-Orn-Aze-cha-Bta-NH—CH2—CH2-Ph] (Ac-F[Orn][Aze][dCha][Bta]-NHPhenethyl) | 200 to 2000 nM
NCCC[C@H](NC(=O)[C@@H](N)Cc1ccccc1)C(=O)N1CCC[C@H]1C(=O)N[C@H](CC1CCCCC1)C(=O)N[C@@H](Cc1c[nH]c2ccccc12)C(=O)N[C@@H](Cc1ccccc1)C(N)=O [Compound 74, H-Phe-Orn-Pro-cha-Trp-Phe-NH2] (H-F[Orn]P[dCha]WF-NH2) | 50 to 200 nM
CCCCNC(=O)N[C@@H](Cc1ccccc1)C(=O)N[C@@H](CCCN)C(=O)N1CCC[C@H]1C(=O)N[C@H](CC1CCCCC1)C(=O)N[C@@H](Cc1c[nH]c2ccccc12)C(=O)N[C@@H](Cc1ccccc1)C(N)=O [Compound 76, Bu-NH—CO-Phe-Orn-Pro-cha-Trp-Phe-NH2] ({NHBu-CO}-F[Orn]P[dCha]WF-NH2) | 200 to 2000 nM
CC(=O)N[C@@H](Cc1cccs1)C(=O)N[C@@H](CCCN)C(=O)N1CCC[C@H]1C(=O)N[C@H](CC1CCCCC1)C(=O)N[C@@H](Cc1c[nH]c2ccccc12)C(=O)N[C@@H](Cc1ccccc1)C(N)=O [Compound 77, Ac-Thi-Orn-Pro-cha-Trp-Phe-NH2] (Ac-[2Thi][Orn]P[dCha]WF-NH2) | 50 to 200 nM
CC(=O)N[C@H](C(=O)N[C@@H](CCCN)C(=O)N1CCC[C@H]1C(=O)N[C@H](CC1CCCCC1)C(=O)N[C@@H](Cc1c[nH]c2ccccc12)C(=O)N[C@@H](Cc1ccccc1)C(N)=O)C(c1ccccc1)c1ccccc1 [Compound 78, Ac-Ebw-Orn-Pro-cha-Trp-Phe-NH2] (Ac-[Dip][Orn]P[dCha]WF-NH2) | 50 to 200 nM
CC(=O)N[C@@H](Cc1ccccc1)C(=O)N[C@@H](CCCN)C(=O)N[C@@H](C)C(=O)N[C@H](CC1CCCCC1)C(=O)N[C@@H](Cc1c[nH]c2ccccc12)C(=O)N[C@@H](Cc1ccccc1)C(N)=O [Compound 79, Ac-Phe-Orn-Ala-cha-Trp-Phe-NH2] (Ac-F[Orn]A[dCha]WF-NH2) | 50 to 200 nM

Further lines, results first:

IC50 | SMILES
20 to 50 nM | CC(=O)N[C@@H](Cc1ccccc1)C(=O)N[C@@H](CCCN)C(=O)N1CCC[C@H]1C(=O)N[C@H](CC1CCCCC1)C(=O)N[C@@H](Cc1c[nH]c2ccccc12)C(=O)N[C@@H](Cc1ccccc1)C(N)=O [Compound 51, Ac-Phe-Orn-Pro-cha-Trp-Phe-NH2] (Ac-F[Orn]P[dCha]WF-NH2)
10 to 20 nM | CC(=O)N[C@@H](Cc1ccccc1)C(=O)N[C@@H](CCCN)C(=O)N1CC[C@H]1C(=O)N[C@H](CC1CCCCC1)C(=O)N[C@@H](Cc1csc2ccccc12)C(=O)N[C@@H](Cc1ccccc1)C(N)=O [Compound 52, Ac-Phe-Orn-Aze-cha-Bta-Phe-NH2] (Ac-F[Orn][Aze][dCha][Bta]F-NH2)
20 to 50 nM | CCCC[C@@H]1NC(=O)[C@H](Cc2c[nH]c3ccccc23)NC(=O)[C@@H](CC2CCCCC2)NC(=O)[C@@H]2CCCN2C(=O)[C@@H](NCc2ccccc2)CCCNC1=O [Compound 56, Ph-CH2-[Orn-Pro-cha-Trp-Nle]]
20 to 50 nM | O=C1NCCC[C@H](NCc2ccccc2)C(=O)N2CCC[C@H]2C(=O)N[C@H](CC2CCCCC2)C(=O)N[C@@H](Cc2c[nH]c3ccccc23)C(=O)N[C@H]1Cc1ccccc1 [Compound 57, Ph-CH2-[Orn-Pro-cha-Trp-Phe]]
20 to 50 nM | CC(=O)N[C@@H](Cc1ccccc1)C(=O)N[C@H]1CCCNC(=O)[C@H](Cc2cccc3ccccc23)NC(=O)[C@H](Cc2c[nH]c3ccccc23)NC(=O)[C@@H](CC2CCCCC2)NC(=O)[C@@H]2CCCN2C1=O [Compound 58, Ac-Phe-[Orn-Pro-cha-Trp-1Ni]] (Ac-F[Orn]P[dCha]W[1Nal]; lactam 2-C)
20 to 50 nM | CCCC[C@@H]1NC(=O)[C@H](Cc2c[nH]c3ccccc23)NC(=O)[C@@H](CC2CCCCC2)NC(=O)[C@@H]2CCCN2C(=O)[C@@H](NC(=O)CC(O)c2ccccc2)CCCNC1=O (stereo partly drawn) [Compound 59, Ph-CH(OH)—CH2—CO-[Orn-Pro-cha-Trp-Nle]] (X23-[Orn]P[dCha]W[Nle]; lactam 1-C)
20 to 50 nM | CC(=O)N[C@@H](Cc1ccccc1)C(=O)N[C@@H](CCCN)C(=O)N1CCC[C@H]1C(=O)N[C@H](CC1CCCCC1)C(=O)N[C@@H](Cc1c[nH]c2ccccc12)C(=O)N[C@@H](Cc1ccc2ccccc2c1)C(N)=O [Compound 64, Ac-Phe-Orn-Pro-cha-Trp-2Ni—NH2] (Ac-F[Orn]P[dCha]W[2Nal]-NH2)
50 to 200 nM | CC(=O)N[C@@H](Cc1ccccc1)C(=O)N[C@@H](CCCN)C(=O)N1CCC[C@H]1C(=O)N[C@H](CC1CCCCC1)C(=O)N[C@@H](Cc1c[nH]c2ccccc12)C(=O)N[C@@H](CC1CCCCC1)C(N)=O [Compound 65, Ac-Phe-Orn-Pro-cha-Trp-Cha-NH2] (Ac-F[Orn]P[dCha]W[Cha]-NH2)
10 to 20 nM | CC(=O)N[C@@H](Cc1cccs1)C(=O)N[C@@H](CCCN)C(=O)N1CC[C@H]1C(=O)N[C@H](CC1CCCCC1)C(=O)N[C@@H](Cc1csc2ccccc12)C(=O)N[C@@H](Cc1ccccc1)C(N)=O [Compound 66, Ac-Thi-Orn-Aze-cha-Bta-Phe-NH2] (Ac-[2Thi][Orn][Aze][dCha][Bta]F-NH2)
50 to 200 nM | CN(C)[C@@H](Cc1ccccc1)C(=O)N[C@@H](CCCN)C(=O)N1CCC[C@H]1C(=O)N[C@H](CC1CCCCC1)C(=O)N[C@@H](Cc1c[nH]c2ccccc12)C(=O)N[C@@H](Cc1ccccc1)C(N)=O [Compound 69, Me2-Phe-Orn-Pro-cha-Trp-Phe-NH2] (NMe2Phe-[Orn]P[dCha]WF-NH2)
50 to 200 nM | CN[C@@H](Cc1ccccc1)C(=O)N[C@@H](CCCN)C(=O)N1CCC[C@H]1C(=O)N[C@H](CC1CCCCC1)C(=O)N[C@@H](Cc1c[nH]c2ccccc12)C(=O)N[C@@H](Cc1ccccc1)C(N)=O [Compound 75, H—Me-Phe-Orn-Pro-cha-Trp-Phe-NH2] (H-[NMeF][Orn]P[dCha]WF-NH2)
